Key:
[1] = target: T1, WT STING (Homo sapiens, UniProt Q86WV6, H232R); assay: Digitonin assay using 293T wtSTING-FL reporter cells; type: cell-based; conditions: 293T wtSTING-FL cells, ISRE firefly luciferase reporter, digitonin buffer 30 minutes, then 5 hours
Excerpt: Two complementary oligonucleotides of the sequence […] […] […] […] […] […] […] The oligonucleotides were mixed in equal molar amounts, hybridized, and cleaved by restriction endonucleases HindIII (cat. #. R0104S, NEB, Ipswich, USA) and BglII (cat. #R0144S, NEB, Ipswich, USA). Ultimately, they were ligated into plasmid pGL4.27 (cat. #E6651, Promega, Madison, USA) linearized with the same enzymes. As result the sequence with four ISRE sites was placed upstream of the minimum promoter of firefly luciferase reporter gene.
After 5 minutes incubation at room temperature (RT), 250 μL of the mixture was added dropwise to the cells in one well. Cells were incubated 36 hours at 37° C. with 5% CO2, and then detached with 0.05% Trypsin and 0.22 g/L EDTA (both cat. #L0941, Biowest, Riverside, USA).
Transfected cells were seeded onto poly-D-lysine coated six well plates at density 50,000 cells per 1 cm^2 in DMEM medium with high glucose containing 10% heat inactivated FBS, 30 μg/mL blasticidin (cat. #ant-bl-05, InvivoGen, San Diego, USA), 0.06 mg/ml Penicillin G and 0.1 mg/ml Streptomycin Sulfate (both cat. #. L0018, Biowest, Riverside, USA). The medium was replenished every 3-4 days until visible colonies of cells resistant to blasticidin were formed.
Blasticidin resistant cells stably expressing WT STING were further transfected with pGL64.27-4×ISRE plasmid following the same procedure as described above. […] Homogeneous culture of stably double transfected cells was prepared by limiting dilution of cells in 96 well plates and wells with cells were selected that originated from a single cell.
The medium was removed next day and three fold serial dilutions of compounds in Digitonin buffer containing 50 mmol·l^−1 HEPES (cat. #H3375, Sigma Aldrich, Czech Republic) pH 7.0, 100 mmol·l^−1 KCl, 3 mmol·l^−1 MgCl2, 0.1 mmol·l^−1 DTT (cat. #D0632, Sigma Aldrich, Czech Republic), 85 mmol·l^−1 Sucrose (cat. #S7903, Sigma Aldrich, Česká Republika), 0.2% BSA (cat. #A2153, Sigma Aldrich, Czech Republic), 1 mmol·l^−1 ATP (cat. #A1852, Sigma Aldrich, Czech Republic), 0.1 mmol·l^−1 GTP (cat. #G8877, Sigma Aldrich, Czech Republic), and 10 μg/mL Digitonin A (cat. #D141, Sigma Aldrich, Czech Republic) were added to the cells. The buffer was removed after 30 minutes incubation at 37° C. with 5% CO2, the cells were washed once with 100 μl of cultivation medium, and 100 μl of medium was added to each well. The plates with cells were incubated for 5 hours at 37° C. with 5% CO2, 50 μl of the medium was removed and 30 μl of ONE-Glo™ Luciferase Assay System reagent (cat. #E6120, Promega, Madison, USA) was added to each well. Luminesce was read on Synergy H1 (Biotek, Winooski, USA).
Target sequence in this assay (Q86WV6 whole entry H232R): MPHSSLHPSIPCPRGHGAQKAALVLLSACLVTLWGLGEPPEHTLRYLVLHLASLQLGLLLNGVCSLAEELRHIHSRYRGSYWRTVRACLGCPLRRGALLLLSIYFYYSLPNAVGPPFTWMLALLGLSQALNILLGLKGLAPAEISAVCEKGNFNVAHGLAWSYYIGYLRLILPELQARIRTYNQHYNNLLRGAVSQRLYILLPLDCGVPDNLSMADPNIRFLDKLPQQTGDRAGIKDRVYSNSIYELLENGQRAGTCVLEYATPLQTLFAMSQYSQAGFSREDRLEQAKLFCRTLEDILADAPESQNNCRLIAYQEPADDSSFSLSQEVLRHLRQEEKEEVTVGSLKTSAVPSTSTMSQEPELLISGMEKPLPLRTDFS

[2] = target: T2, AQ STING (G230A-R293Q) (Homo sapiens, UniProt Q86WV6, G230A/H232R/R293Q); assay: Differential Scanning Fluorimetry with AQ STING; type: binding; conditions: thermal shift, truncated human AQ STING 0.1 mg/ml, 150 μM CDN; for ΔTm at 150 µM: read-out: DSF ΔTm AQ STING
T2 construct: truncated human WT STING or AQ STING (amino acid residues 140-343); 8xHis (N, cleaved yes); SUMO (N, cleaved yes); made in house; host or cells: E. coli Rosetta-gami B (DE3)
Procedure: (§1) Purified PCR products were cleaved with restriction enzymes BamHI (cat. #R0136S, NEB, Ipswich, USA) and NotI (cat. #R0189S, NEB, Ipswich, USA) and cloned into the pSUMO vector linearized with the identical enzymes.
(§2) DNase I (cat. #D5025, Sigma Aldrich, Czech Republic) and RNase A (cat. #R6513, Sigma Aldrich, Czech Republic) were added (final concentration 50 μg/ml) together with MgCl2 (final concentration 5 mmol·l^−1) to the homogenate and bacteria were lysed using French Press G-M™ High-Pressure Cell Press Homogenizer (1500 psi, 3 cycles). […] The resin was poured into a chromatography column, washed with 50 ml buffer A (50 mmol·l^−1 TrisCl (pH 8.0), 800 mmol·l^−1 NaCl, 3 mmol·l^−1 β-mercaptoethanol; 10% glycerol; 20 mmol·l^−1 imidazole) and 8-His-SUMO tagged STING proteins were eluted with 15 ml buffer A containing 300 mmol·l^−1 imidazole. […] Proteins were concentrated with Amicon® Ultra-15 10 K device (cat. #UFC901008, Merck Millipore, Billerica, USA) and flash frozen in liquid N2.
(§3) 20 μL solutions of the reaction mixtures were pipetted in triplicates into 96 well optical reaction plates and thermal denaturation of samples were performed on real time PCR cycler (LightCycler® 480 Instrument II—Roche, Basel, Switzerland). The first derivative of the thermal denaturation curves was performed to calculate denaturing temperatures of STING-CDN complexes and STING apoproteins. The thermal shift for each CDN was calculated by subtracting the average denaturing temperature of STING apoprotein from the average denaturing temperature of STING CDN complex.

[3] = target: T1, WT STING; assay: Differential Scanning Fluorimetry with WT STING; type: binding; design: truncated human WT STING or AQ STING (amino acid residues 140-343); 8xHis (N, cleaved yes); SUMO (N, cleaved yes); made in house; host or cells: E. coli Rosetta-gami B (DE3); conditions: thermal shift, truncated human WT STING 0.1 mg/ml, 150 μM CDN; for ΔTm at 150 µM: read-out: DSF ΔTm WT STING
Procedure: as §1, §2, §3
Target sequence in this assay (Q86WV6 140-343 H232R): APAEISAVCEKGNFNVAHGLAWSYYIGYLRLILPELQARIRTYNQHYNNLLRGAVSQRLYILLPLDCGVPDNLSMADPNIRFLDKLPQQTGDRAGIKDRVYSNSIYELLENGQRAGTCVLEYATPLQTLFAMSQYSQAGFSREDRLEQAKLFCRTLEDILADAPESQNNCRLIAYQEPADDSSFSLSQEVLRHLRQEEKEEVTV

T2 sequence (Q86WV6 140-343 G230A/H232R/R293Q): as the sequence (Q86WV6 140-343 H232R) above, with G91A, R154Q counted along it

`Nc1nc2c(ncn2[C@@H]2O[C@@H]3COP(=O)(O)OC4C(F)[C@H](n5cnc6c(N)ncnc65)O[C@@H]4COP(=O)(O)COC3C2F)c(=O)[nH]1` (stereo partly drawn) [Example 12] was tested. Which EC50 [1] did it give?
Its EC50 is 20 nM.

What about the ΔTm at 150 µM [2] of the same compound?
Its ΔTm at 150 µM is 17.3 °C.

What about the ΔTm at 150 µM [3] of the same compound?
Its ΔTm at 150 µM is 9.3 °C.

How did the EC50 [1] turn out when `Nc1nc2c(ncn2[C@@H]2O[C@@H]3COP(=O)(O)O[C@H]4[C@@H](O)[C@H](n5cnc6c(=O)[nH]c(N)nc65)O[C@@H]4COP(=O)(O)O[C@H]3[C@H]2O)c(=O)[nH]1` [3′3′-c-di-GMP, reference compound] was run?
The EC50 was 5800 nM.

What about the “DSF ΔTm AQ STING” value [2] of the same compound?
The value was 7.7 °C.

What about the “DSF ΔTm WT STING” value [3] of the same compound?
Its value is 2.6 °C.

What does the source list for `Nc1nc2c(ncn2[C@@H]2O[C@@H]3COP(=O)(O)COC4C(O)[C@H](n5cnc6c(N)ncnc65)O[C@@H]4COP(=O)(O)OC3C2O)c(=O)[nH]1` (stereo partly drawn) [Example 3, 2-amino-9-((2R,3R,3aS,7aR,9R,10R,10aS,15aR)-9-(6-amino-9H-purin-9-yl)-3,5,10,13-tetrahydroxy-5,13-dioxidodecahydro-2H-difuro[3,2-d:3′,2′-k][1,3,7,10]tetraoxa[2,8]diphosphacyclotridecin-2-yl)-1,9-dihydro-6H-purin-6-one]?
EC50 [1]: 12500 nM; ΔTm at 150 µM [2]: 3.1 °C; ΔTm at 150 µM [3]: 0 °C

Which results are given for `Nc1ncnc2c1ncn2[C@@H]1O[C@@H]2COP(=O)(O)COC3C(O)[C@H](n4cnc5c(N)ncnc54)O[C@@H]3COP(=O)(O)COC2C1O` (stereo partly drawn) [Example 9, (2R,3S,3aS,8aR,10R,11S,11aS,16aR)-2,10-bis(6-amino-9H-purin-9-yl)-3,6,11,14-tetrahydroxvdodecahydrodifuro[3,2-e:3′,2′-l][1,4,8,11]tetraoxa[2,9]diphosphacyclotetradecine 6,14-dioxide]?
EC50 [1]: > 100000 nM; DSF ΔTm AQ STING [2]: 0.1 °C; DSF ΔTm WT STING [3]: 0.1 °C

Which results are given for `Nc1nc2c(ncn2[C@@H]2O[C@@H]3COP(=O)(O)COC4C(F)[C@H](n5cnc6c(N)ncnc65)O[C@@H]4COP(=O)(O)OC3C2O)c(=O)[nH]1` (stereo partly drawn) [Example 7, 2-amino-9-((2R,3R,3aS,7aR,9R,10R,10aR,15aR)-9-(6-amino-9H-purin-9-yl)-10-fluoro-3,5,13-trihydroxy-5,13-dioxidodecahydro-2H-difuro[3,2-d:3′,2′-k][1,3,7,10]tetraoxa[2,8]diphosphacyclotridecin-2-yl)-1,9-dihydro-6H-purin-6-one]?
EC50 [1]: 30 nM; ΔTm at 150 µM [2]: 15 °C; ΔTm at 150 µM [3]: 5.6 °C

Which EC50 [1] does the source give for `Nc1nc2c(ncn2[C@@H]2O[C@@H]3COP(=O)(O)O[C@@H]4[C@H](O)[C@@H](COP(=O)(O)O[C@@H]2[C@@H]3O)O[C@H]4n2cnc3c(N)ncnc32)c(=O)[nH]1` [2′2′-cGAMP, reference compound] here?
Its EC50 is 30 nM.

And the “DSF ΔTm AQ STING” value [2]?
The value was 19.4 °C.

And the “DSF ΔTm WT STING” value [3]?
The value was 11.5 °C.

`Nc1nc2c(ncn2[C@@H]2O[C@@H]3COP(=O)(O)COC4C(O)[C@H](n5cnc6c(N)ncnc65)O[C@@H]4COP(=O)(O)OC3C2F)c(=O)[nH]1` (stereo partly drawn) [Example 5, 2-amino-9-((2R,3R,3aR,7aR,9R,10R,10aS,15aR)-9-(6-amino-9H-purin-9-yl)-3-fluoro-5,10,13-trihydroxy-5,13-dioxidodecahydro-2H-difuro[3,2-d:3′,2′-k][1,3,7,10]tetraoxa[2,8]diphosphacyclotridecin-2-yl)-1,9-dihydro-6H-purin-6-one] was tested. Which EC50 [1] did it give?
The EC50 was 100 nM.

What about the ΔTm at 150 µM [2] of the same compound?
Its ΔTm at 150 µM is 12 °C.

And the ΔTm at 150 µM [3]?
Its ΔTm at 150 µM is 4.1 °C.

With `Nc1ncnc2c1ncn2[C@@H]1O[C@@H]2COP(=O)(O)COC3C(O)[C@H](n4cnc5c(N)ncnc54)O[C@@H]3COP(=O)(O)COC2C1O` (stereo partly drawn) [Example 10, (2R,3R,3aR,8aR,10R,11R,11aR,16aR)-2,10-bis(6-amino-9H-purin-9-yl)-3,6,11,14-tetrahydroxvdodecahydrodifuro[3,2-e:3′,2′-l][1,4,8,11]tetraoxa[2,9]diphosphacyclotetradecine 6,14-dioxide] as the compound, how does the EC50 [1] read?
The EC50 was over 100000 nM.

And the “DSF ΔTm AQ STING” value [2]?
Its value is −0.2 °C.

What about the “DSF ΔTm WT STING” value [3] of the same compound?
Its value is 0.0 °C.

Reference: patent US11292812B2, “3′3′-cyclic dinucleotides” (Institute of Organic Chemistry and Biochemistry, ASCR, V.V.I, priority 2018, dated 2022)
